According to patent US10723699B2 (Hyundai Pharm Co., Ltd., priority 2015, dated 2020):
Read-outs that look alike come from different tables or passages of the source.

Target: T1, G protein-coupled receptor 119 (GPR-119) (Mesocricetus auratus, UniProt A0A1U8CD06)
T1 construct: hamster-derived β-cells containing G protein-coupled receptor 119 (GPR-119), HIT-T15 cells; host or cells: HIT-T15 (hamster pancreatic β-cells)
T1 sequence (A0A1U8CD06 1-334): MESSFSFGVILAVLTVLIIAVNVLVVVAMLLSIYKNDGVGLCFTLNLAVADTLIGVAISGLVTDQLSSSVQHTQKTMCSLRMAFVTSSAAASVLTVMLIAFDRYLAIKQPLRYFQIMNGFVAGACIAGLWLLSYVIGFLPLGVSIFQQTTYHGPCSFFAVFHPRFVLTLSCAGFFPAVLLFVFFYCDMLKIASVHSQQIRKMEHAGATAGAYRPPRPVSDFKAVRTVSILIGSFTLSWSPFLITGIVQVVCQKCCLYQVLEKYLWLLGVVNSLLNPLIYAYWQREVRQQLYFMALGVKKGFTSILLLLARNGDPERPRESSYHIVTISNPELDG
Test: cAMP activity in HIT-T15 cells (cAMP dynamic kit, FRET)
Type: cell-based, hamster
Method in brief: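 Hamster HIT-T15 cells (60,000/well) were treated next day with compound at six concentrations, 0.0032–10 μM, for 1 h at 37° C. Cells were then lysed and cAMP measured by competitive HTRF immunoassay (D2-cAMP, cryptate anti-cAMP). Activity was derived as the change in FRET signal relative to DMSO.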

[1] = 1 hour at 37° C., six concentrations 0.0032 to 10 μM, read-out: EC50

Row | EC50 [1] [µM] | EC50 (Table 2, read-out: EC50 value) [µM] | Structure (SMILES)
1 | 0.034 | ≤ 0.05 | CC(C)OC(=O)N1CCC(COc2ccc(C3=CCC(C(=O)N4CCCC4)CC3)cc2F)CC1 (stereo not drawn) [Example 401, isopropyl 4-((2-fluoro-4-(4-(pyrrolidine-1-carbonyl)cyclohex-1-enyl)phenoxy)methyl)piperidine-1-carboxylate]
2 | 0.022 | ≤ 0.05 | O=C(Oc1ccccc1)N1CCC(COc2ccc(C3=CCC(C(=O)N4CCCC4)CC3)cc2F)CC1 (stereo not drawn) [Example 403, phenyl 4-((2-fluoro-4-(4-(pyrrolidine-1-carbonyl)cyclohex-1-enyl)phenoxy)methyl)piperidine-1-carboxylate]
3 | 0.055 |  | O=C(Oc1ccc([N+](=O)[O-])cc1)N1CCC(COc2ccc(C3=CCC(C(=O)N4CCCC4)CC3)cc2F)CC1 (stereo not drawn) [Example 404, 4-nitrophenyl 4-((2-fluoro-4-(4-(pyrrolidine-1-carbonyl)cyclohex-1-enyl)phenoxy)methyl)piperidine-1-carboxylate]
4 | 0.059 |  | O=C(OC(C(F)(F)F)C(F)(F)F)N1CCC(COc2ccc(C3=CCC(C(=O)N4CCCC4)CC3)cc2F)CC1 (stereo not drawn) [Example 405, 1,1,1,3,3,3-hexafluoropropan-2-yl 4-((2-fluoro-4-(4-(pyrrolidine-1-carbonyl)cyclohex-1-enyl)phenoxy)methyl)piperidine-1-carboxylate]
5 | 0.036 | ≤ 0.05 | CC(OC(=O)N1CCC(COc2ccc(C3=CCC(C(=O)N4CCCC4)CC3)cc2F)CC1)C(F)(F)F (stereo not drawn) [Example 406, 1,1,1-trifluoropropan-2-yl 4-((2-fluoro-4-(4-(pyrrolidine-1-carbonyl)cyclohex-1-enyl)phenoxy)methyl)piperidine-1-carboxylate]
6 | 0.025 | ≤ 0.05 | CC1(OC(=O)N2CCC(COc3ccc(C4=CCC(C(=O)N5CCCC5)CC4)cc3F)CC2)CC1 (stereo not drawn) [Example 408, 1-methylcyclopropyl 4-((2-fluoro-4-(4-(pyrrolidine-1-carbonyl)cyclohex-1-enyl)phenoxy)methyl)piperidine-1-carboxylate]
7 | 0.062 |  | O=C(C1CC=C(c2ccc(OCC3CCN(C(=O)C4(C(F)(F)F)CCCC4)CC3)c(F)c2)CC1)N1CCCC1 (stereo not drawn) [Example 409, (4-(3-fluoro-4-((1-(1-(trifluoromethyl)cyclopentanecarbonyl)piperidin-4-yl)methoxy)phenyl)cyclohex-3-enyl)(pyrrolidin-1-yl)methanone]
8 | 0.014 |  | CON=C1CCN(C(=O)C2CC=C(c3ccc(OCC4CCN(c5nc(C(C)C)no5)CC4)cc3)CC2)CC1 (stereo not drawn) [Example 410, (4-(4-((1-(3-isopropyl-1,2,4-oxadiazol-5-yl)piperidin-4-yl)methoxy)phenyl)cyclohex-3-enyl)(4-(methoxyimino)piperidin-1-yl)methanone]
9 | 0.015 | ≤ 0.05 | CC(C)c1noc(N2CCC(COc3ccc(C4=CCC(C(=O)N5CCC(=NO)CC5)CC4)cc3F)CC2)n1 (stereo not drawn) [Example 411, (4-(3-fluoro-4-((1-(3-isopropyl-1,2,4-oxadiazol-5-yl)piperidin-4-yl)methoxy)phenyl)cyclohex-3-enyl)(4-(hydroxyimino)piperidin-1-yl)methanone]
10 | 0.037 | ≤ 0.05 | CCCNC(=O)N1CCN(C(=O)C2CC=C(c3ccc(OCC4CCN(c5ncc(CC)cn5)CC4)cc3)CC2)CC1 (stereo not drawn) [Example 412, 4-(4-(4-((1-(5-ethylpyrimidin-2-yl)piperidin-4-yl)methoxy)phenyl)cyclohex-3-enecarbonyl)-N-propylpiperazine-1-carboxamide]
11 | 0.025 | ≤ 0.05 | CCc1cnc(N2CCC(COc3ccc(C4=CCC(C(=O)N5CCN(C(=O)NC(C)C)CC5)CC4)cc3)CC2)nc1 (stereo not drawn) [Example 413, 4-(4-(4-((1-(5-ethylpyrimidin-2-yl)piperidin-4-yl)methoxy)phenyl)cyclohex-3-enecarbonyl)-N-isopropylpiperazine-1-carboxamide]
12 | 0.027 | ≤ 0.05 | CCc1cnc(N2CCC(COc3ccc(C4=CCC(C(=O)N5CCN(C(=O)C=C(C)C)CC5)CC4)cc3)CC2)nc1 (stereo not drawn) [Example 414, 1-(4-(4-(4-((1-(5-ethylpyrimidin-2-yl)piperidin-4-yl)methoxy)phenyl)cyclohex-3-enecarbonyl)piperazin-1-yl)-3-methylbut-2-en-1-one]
13 | 0.055 |  | CCc1cnc(N2CCC(COc3ccc(C4=CCC(C(=O)N5CCCCC5)CC4)cc3C)CC2)nc1 (stereo not drawn) [Example 415, (4-(4-((1-(5-ethylpyrimidin-2-yl)piperidin-4-yl)methoxy)-3-methylphenyl)cyclohex-3-enyl)(piperidin-1-yl)methanone]
14 | 0.075 |  | CCc1cnc(N2CCC(COc3ccc(C4=CCC(C(=O)N5CCCC5)CC4)cc3C)CC2)nc1 (stereo not drawn) [Example 416, (4-(4-((1-(5-ethylpyrimidin-2-yl)piperidin-4-yl)methoxy)-3-methylphenyl)cyclohex-3-enyl)(pyrrolidin-1-yl)methanone]
15 | 0.05 | ≤ 0.05 | CCc1cnc(N2CCC(COc3ccc(C4=CCC(C(=O)N5CCOCC5)CC4)cc3C)CC2)nc1 (stereo not drawn) [Example 417, (4-(4-((1-(5-ethylpyrimidin-2-yl)piperidin-4-yl)methoxy)-3-methylphenyl)cyclohex-3-enyl)(morpholino)methanone]
16 | 0.035 | ≤ 0.05 | CCc1cnc(N2CCC(COc3ccc(C4=CCC(C(=O)N5CCSCC5)CC4)cc3C)CC2)nc1 (stereo not drawn) [Example 418, (4-(4-((1-(5-ethylpyrimidin-2-yl)piperidin-4-yl)methoxy)-3-methylphenyl)cyclohex-3-enyl)(thiomorpholino)methanone]
17 | 0.11 |  | Cn1nnnc1N1CCC(COc2ccc(C3=CCC(C(=O)N4CCCC4)CC3)cc2F)CC1 (stereo not drawn) [Example 420, (4-(3-fluoro-4-((1-(1-methyl-1H-tetrazol-5-yl)piperidin-4-yl)methoxy)phenyl)cyclohex-3-enyl)(pyrrolidin-1-yl)methanone]
18 | 0.053 |  | O=C(C1CC=C(c2ccc(OCC3CCN(C(=O)C4(C(F)(F)F)CC4)CC3)c(F)c2)CC1)N1CCCC1 (stereo not drawn) [Example 421, (4-(3-fluoro-4-((1-(1-(trifluoromethyl)cyclopropanecarbonyl)piperidin-4-yl)methoxy)phenyl)cyclohex-3-enyl)(pyrrolidin-1-yl)methanone]
19 | 0.018 | ≤ 0.05 | CCc1cnc(N2CCC(COc3ccc(C4=CCC(C(=O)N5CCOCC5)CC4)c(F)c3)CC2)nc1 (stereo not drawn) [Example 422, (4-(4-((1-(5-ethylpyrimidin-2-yl)piperidin-4-yl)methoxy)-2-fluorophenyl)cyclohex-3-enyl)(morpholino)methanone]
20 | 0.019 | ≤ 0.05 | CCc1cnc(N2CCC(COc3ccc(C4=CCC(C(=O)N5CCSCC5)CC4)c(F)c3)CC2)nc1 (stereo not drawn) [Example 423, (4-(4-((1-(5-ethylpyrimidin-2-yl)piperidin-4-yl)methoxy)-2-fluorophenyl)cyclohex-3-enyl)(thiomorpholino)methanone]
21 | 0.021 | ≤ 0.05 | CCc1cnc(N2CCC(COc3ccc(C4=CCC(C(=O)N5CCC(C#N)CC5)CC4)c(F)c3)CC2)nc1 (stereo not drawn) [Example 424, 1-(4-(4-((1-(5-ethylpyrimidin-2-yl)piperidin-4-yl)methoxy)-2-fluorophenyl)cyclohex-3-enecarbonyl)piperidine-4-carbonitrile]
22 | 0.048 | ≤ 0.05 | CCc1cnc(N2CCC(COc3ccc(C4=CCC(C(=O)N5CCC5)CC4)c(F)c3)CC2)nc1 (stereo not drawn) [Example 425, azetidin-1-yl(4-(4-((1-(5-ethylpyrimidin-2-yl)piperidin-4-yl)methoxy)-2-fluorophenyl)cyclohex-3-enyl)methanone]
23 | 0.0067 | ≤ 0.05 | CCc1cnc(N2CCC(COc3ccc(C4=CCC(C(=O)N5CCCCC5)CC4)c(F)c3)CC2)nc1 (stereo not drawn) [Example 426, (4-(4-((1-(5-ethylpyrimidin-2-yl)piperidin-4-yl)methoxy)-2-fluorophenyl)cyclohex-3-enyl)(piperidin-1-yl)methanone]
24 | 0.032 | ≤ 0.05 | CCc1cnc(N2CCC(COc3ccc(C4=CCC(C(=O)N5CCC[C@@H]5CO)CC4)c(F)c3)CC2)nc1 (stereo partly drawn) [Example 427, (4-(4-((1-(5-ethylpyrimidin-2-yl)piperidin-4-yl)methoxy)-2-fluorophenyl)cyclohex-3-enyl)((R)-2-(hydroxymethyl)pyrrolidin-1-yl)methanone]
25 | 0.07 |  | CCc1cnc(N2CCC(COc3ccc(C4=CCC(C(=O)N5CCN(C)CC5)CC4)cc3F)CC2)nc1 (stereo not drawn) [Example 428, (4-(4-((1-(5-ethylpyrimidin-2-yl)piperidin-4-yl)methoxy)-3-fluorophenyl)cyclohex-3-enyl)(4-methylpiperazin-1-yl)methanone]
26 | 0.027 | ≤ 0.05 | CCc1cnc(N2CCC(COc3ccc(C4=CCC(C(=O)N5CCC(O)CC5)CC4)c(F)c3)CC2)nc1 (stereo not drawn) [Example 431, (4-(4-((1-(5-ethylpyrimidin-2-yl)piperidin-4-yl)methoxy)-2-fluorophenyl)cyclohex-3-enyl)(4-hydroxypiperidin-1-yl)methanone]
27 | 0.029 | ≤ 0.05 | CCc1cnc(N2CCC(COc3ccc(C4=CCC(C(=O)N5CCC(CO)CC5)CC4)c(F)c3)CC2)nc1 (stereo not drawn) [Example 432, (4-(4-((1-(5-ethylpyrimidin-2-yl)piperidin-4-yl)methoxy)-2-fluorophenyl)cyclohex-3-enyl)(4-(hydroxymethyl)piperidin-1-yl)methanone]
